Biological target: recombinant His-tag Wip1(2-420) protein (amino acids #2-420) (Homo sapiens (Human), UniProt O15297)
Assay: Wip1(2-420) phosphatase enzyme FDP assay
Type: biochemical
Conditions: fluorescein diphosphate (FDP) substrate, RT 2 hours, fluorescence Ex485/Em535; read-out: WIP1 (Truncated 2-420) FDP Assay: IC50

Sequence of recombinant His-tag Wip1(2-420) protein (amino acids #2-420) (O15297 2-420): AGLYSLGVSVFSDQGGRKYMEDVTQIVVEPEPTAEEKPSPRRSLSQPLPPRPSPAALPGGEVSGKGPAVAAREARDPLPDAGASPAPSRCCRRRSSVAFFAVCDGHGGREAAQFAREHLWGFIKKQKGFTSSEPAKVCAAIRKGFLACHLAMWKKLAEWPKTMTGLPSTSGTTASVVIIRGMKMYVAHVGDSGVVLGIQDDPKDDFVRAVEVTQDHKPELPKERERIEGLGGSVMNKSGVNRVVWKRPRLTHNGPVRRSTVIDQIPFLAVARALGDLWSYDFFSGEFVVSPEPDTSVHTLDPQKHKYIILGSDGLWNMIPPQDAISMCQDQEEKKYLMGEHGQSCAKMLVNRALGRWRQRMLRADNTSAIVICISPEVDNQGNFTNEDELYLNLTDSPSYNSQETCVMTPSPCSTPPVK

Row | Compound | IC50 [nM]
1 | CC[C@@H](Nc1cc(Cl)cnc1C)c1ccc(C(=O)N[C@@H](CC2CCCC2)C(=O)NC23CC(C#N)(C2)C3)s1 [Compound 81, (2S)-2-({5-[(1R)-1-[(5-chloro-2-methylpyridin-3-yl)amino]propyl]thiophen-2-yl}formamido)-N-{3-cyanobicyclo[1.1.1]pentan-1-yl}-3-cyclopentylpropanamide] | 693
2 | C[C@H](c1ccc(C(=O)N[C@@H](CC2CCCC2)C(=O)NC2CC2)s1)N1CCN(C)c2ccc(Cl)cc21 [Compound 240, (2S)-2-({5-[(1R)-1-(7-chloro-4-methyl-1,2,3,4-tetrahydroquinoxalin-1-yl)ethyl]thiophen-2-yl}formamido)-3-cyclopentyl-N-cyclopropylpropanamide] | 154
3 | C[C@H](Nc1cccc(Cl)c1)c1ncc(C(=O)N[C@@H](CC2CCCC2)C(=O)NC2CC2)s1 [Compound 124, (2S)-2-({2-[(1S)-1-[(3-chlorophenyl)amino]ethyl]-1,3-thiazol-5-yl}formamido)-3-cyclopentyl-N-cyclopropylpropanamide] | 905
4 | Cc1ncc(Cl)cc1N[C@H](Cc1ccccc1)c1ccc(C(=O)N[C@@H](CC2CCCC2)C(=O)NC23CC(C#N)(C2)C3)s1 [Compound 213, (2S)-2-({5-[(1R)-1-[(5-chloro-2-methylpyridin-3-yl)amino]-2-phenylethyl]thiophen-2-yl}formamido)-N-{3-cyanobicyclo[1.1.1]pentan-1-yl}-3-cyclopentylpropanamide] | 166
5 | Cc1cc(NC(=O)[C@H](CC2CCCC2)NC(=O)c2cnc([C@H](C)Nc3cccc(Cl)c3)s2)cc(C)n1 [Compound 128, (2S)-2-({2-[(1S)-1-[(3-chlorophenyl)amino]ethyl]-1,3-thiazol-5-yl}formamido)-3-cyclopentyl-N-(2,6-dimethylpyridin-4-yl)propanamide] | 3910
6 | COC[C@H](Nc1cc(Cl)cnc1C)c1ccc(C(=O)N[C@@H](CC2CCCC2)C(=O)NC2CC2)s1 [Compound 159, (2S)-2-({5-[(1S)-1-[(5-chloro-2-methylpyridin-3-yl)amino]-2-methoxyethyl]thiophen-2-yl}formamido)-3-cyclopentyl-N-cyclopropylpropanamide] | 13
7 | Cc1ncc(Cl)cc1N[C@@H](Cc1ccccc1)c1ccc(C(=O)N[C@@H](CC2CCCC2)C(=O)NC23CC(C2)C3)s1 [Compound 216, (2S)-N-{bicyclo[1.1.1]pentan-1-yl}-2-({5-[(1S)-1-[(5-chloro-2-methylpyridin-3-yl)amino]-2-phenylethyl]thiophen-2-yl}formamido)-3-cyclopentylpropanamide] | 12
8 | Cc1ncc(Cl)cc1NC(c1ccc(C(=O)N[C@@H](CC2CCCC2)C(=O)NC23CC(C2)C3)s1)C(F)(F)F (stereo partly drawn) [Compound 225, (2S)-N-{bicyclo[1.1.1]pentan-1-yl}-2-[(5-{1-[(5-chloro-2-methylpyridin-3-yl)amino]-2,2,2-trifluoroethyl}thiophen-2-yl)formamido]-3-cyclopentylpropanamide] | 89
9 | COc1ccc(-c2ncc(Cl)cc2N[C@H](C)c2ccc(C(=O)N[C@@H](CC3CCCC3)C(=O)NC3CC3)s2)cc1 [Compound 238, (2S)-2-({5-[(1R)-1-{[5-chloro-2-(4-methoxyphenyl)pyridin-3-yl]amino}ethyl]thiophen-2-yl}formamido)-3-cyclopentyl-N-cyclopropylpropanamide] | 188
10 | C[C@@H](c1ccc(C(=O)N[C@@H](CC2CCCC2)C(=O)NC2CC2)s1)N1CCN(C)c2ccc(Cl)cc21 [Compound 239, (2S)-2-({5-[(1S)-1-(7-chloro-4-methyl-1,2,3,4-tetrahydroquinoxalin-1-yl)ethyl]thiophen-2-yl}formamido)-3-cyclopentyl-N-cyclopropylpropanamide] | 38
11 | Cc1ncc(Cl)cc1NC(Cc1ccccc1)c1ccc(C(=O)N[C@@H](CC2CCCC2)C(=O)NC23CC(F)(C2)C3)s1 (stereo partly drawn) [Compound 212, (2S)-2-[(5-{1-[(5-chloro-2-methylpyridin-3-yl)amino]-2-phenylethyl}thiophen-2-yl)formamido]-3-cyclopentyl-N-{3-fluorobicyclo[1.1.1]pentan-1-yl}propanamide] | 23
12 | CC(Nc1cc(Cl)ccc1C(C)(C)O)c1ccc(C(=O)N[C@@H](CC2CCCC2)C(=O)NC2CC2)s1 (stereo partly drawn) [Compound 229, (2S)-2-{[5-(1-{[5-chloro-2-(2-hydroxypropan-2-yl)phenyl]amino}ethyl)thiophen-2-yl]formamido}-3-cyclopentyl-N-cyclopropylpropanamide] | 20
13 | C[C@@H](Nc1cc(Cl)cnc1C(N)=O)c1ccc(C(=O)N[C@@H](CC2CCCC2)C(=O)Nc2cnn(C)c2)s1 [Compound 137, 5-chloro-3-{[(1R)-1-(5-{[(1S)-2-cyclopentyl-1-[(1-methyl-1H-pyrazol-4-yl)carbamoyl]ethyl]carbamoyl}thiophen-2-yl)ethyl]amino}pyridine-2-carboxamide] | 54
14 | C[C@@H](c1ccc(C(=O)N[C@@H](CC2CCCC2)C(=O)NC2CC2)s1)N(C)c1cncc(Cl)c1 [Compound 89, (2S)-2-({5-[(1S)-1-[(5-chloropyridin-3-yl)(methyl)amino]ethyl]thiophen-2-yl}formamido)-3-cyclopentyl-N-cyclopropylpropanamide] | 102

The next compounds have a lower IC50 than those just listed; values first:

Row | IC50 [nM] | Compound
15 | 6 | Cc1ncc(Cl)cc1N[C@@H](Cc1ccccc1)c1ccc(C(=O)N[C@@H](CC2CCCC2)C(=O)NC2CC2)s1 [Compound 262, (2S)-2-({5-[(1S)-1-[(5-chloro-2-methylpyridin-3-yl)amino]-2-phenylethyl]thiophen-2-yl}formamido)-3-cyclopentyl-N-cyclopropylpropanamide]
16 | 11 | COc1ccc(Cl)cc1N[C@@H](C)c1ccc(C(=O)N[C@@H](CC2CCCC2)C(=O)NC2CC2)s1 [Compound 254, (2S)-2-({5-[(1S)-1-[(5-chloro-2-methoxyphenyl)amino]ethyl]thiophen-2-yl}formamido)-3-cyclopentyl-N-cyclopropylpropanamide]
17 | 10 | COC(=O)c1ncc(Cl)cc1N[C@@H](C)c1ccc(C(=O)N[C@@H](CC2CCCC2)C(=O)NC2CC2)s1 [Compound 102, methyl 5-chloro-3-{[(1S)-1-(5-{[(1S)-2-cyclopentyl-1-(cyclopropylcarbamoyl)ethyl]carbamoyl}thiophen-2-yl)ethyl]amino}pyridine-2-carboxylate]
18 | 6 | Cc1ncc(Cl)cc1N[C@@H](C)c1ccc(C(=O)N[C@@H](CC2CCCC2)C(=O)Nc2cnn(C3CCN(C)CC3)c2)s1 [Compound 152, (2S)-2-({5-[(1S)-1-[(5-chloro-2-methylpyridin-3-yl)amino]ethyl]thiophen-2-yl}formamido)-3-cyclopentyl-N-[1-(1-methylpiperidin-4-yl)-1H-pyrazol-4-yl]propanamide]
19 | 10 | Cc1ncc(Cl)cc1N[C@@H](C)c1ccc(C(=O)N[C@@H](CC2CCC3CC32)C(=O)NC2CC2)s1 (stereo partly drawn) [Compound 92, (2S)-3-{bicyclo[3.1.0]hexan-2-yl}-2-({5-[(1S)-1-[(5-chloro-2-methylpyridin-3-yl)amino]ethyl]thiophen-2-yl}formamido)-N-cyclopropylpropanamide]
20 | 4 | C[C@H](Nc1cc(Cl)cnc1C(N)=O)c1ccc(C(=O)N[C@@H](CC2CCCC2)C(=O)NC23CC(C2)C3)s1 [Compound 133, 3-{[(1S)-1-(5-{[(1S)-1-({bicyclo[1.1.1]pentan-1-yl}carbamoyl)-2-cyclopentylethyl]carbamoyl}thiophen-2-yl)ethyl]amino}-5-chloropyridine-2-carboxamide]
21 | 7 | COc1ccccc1-c1ncc(Cl)cc1N[C@@H](C)c1ccc(C(=O)N[C@@H](CC2CCCC2)C(=O)NC2CC2)s1 [Compound 242, (2S)-2-({5-[(1S)-1-{[5-chloro-2-(2-methoxyphenyl)pyridin-3-yl]amino}ethyl]thiophen-2-yl}formamido)-3-cyclopentyl-N-cyclopropylpropanamide]
22 | 8 | CNC(=O)[C@H](CC1CCCCC1)NC(=O)c1ccc([C@H](C)Nc2cc(Cl)cnc2C)s1 [Compound 265, (2S)-2-({5-[(1S)-1-[(5-chloro-2-methylpyridin-3-yl)amino]ethyl]thiophen-2-yl}formamido)-3-cyclohexyl-N-methylpropanamide]
23 | 4 | Cc1ncc(Cl)cc1N[C@@H](C)c1ccc(C(=O)N[C@@H](CC2CC3CC3C2)C(=O)Nc2cnn(C)c2)s1 (stereo partly drawn) [Compound 179, (2S)-3-{bicyclo[3.1.0]hexan-3-yl}-2-({5-[(1S)-1-[(5-chloro-2-methylpyridin-3-yl)amino]ethyl]thiophen-2-yl}formamido)-N-(1-methyl-1H-pyrazol-4-yl)propanamide]
24 | 8 | Cc1ncc(Cl)cc1N[C@@H](C)c1ccc(C(=O)N[C@@H](CC2CCCC2)C(=O)NC(C)C)s1 [Compound 84, (2S)-2-({5-[(1S)-1-[(5-chloro-2-methylpyridin-3-yl)amino]ethyl]thiophen-2-yl}formamido)-3-cyclopentyl-N-(propan-2-yl)propanamide]
25 | 10 | Cc1ncc(Cl)cc1N[C@@H](C)c1ccc(C(=O)N[C@@H](C[C@@H]2CCC3CC32)C(=O)NC23CC(C2)C3)s1 (stereo partly drawn) [Compound 245, (2S)-N-{bicyclo[1.1.1]pentan-1-yl}-3-[(2S)-bicyclo[3.1.0]hexan-2-yl]-2-({5-[(1S)-1-[(5-chloro-2-methylpyridin-3-yl)amino]ethyl]thiophen-2-yl}formamido)propanamide]
26 | 6 | CNC(=O)c1ncc(Cl)cc1N[C@@H](C)c1ccc(C(=O)N[C@@H](CC2CCCC2)C(=O)NC2CC2)s1 [Compound 196, 5-chloro-3-{[(1S)-1-(5-{[(1S)-2-cyclopentyl-1-(cyclopropylcarbamoyl)ethyl]carbamoyl}thiophen-2-yl)ethyl]amino}-N-methylpyridine-2-carboxamide]
27 | 7 | Cc1ncc(Cl)cc1N[C@@H](C)c1ccc(C(=O)N[C@@H](CC2CCCC2)C(=O)Nc2cc[nH]n2)s1 [Compound 155, (2S)-2-({5-[(1S)-1-[(5-chloro-2-methylpyridin-3-yl)amino]ethyl]thiophen-2-yl}formamido)-3-cyclopentyl-N-(1H-pyrazol-3-yl)propanamide]

Source: US20240116910A1, “Heterocycles as WIP1 Inhibitors” (PMV Pharmaceuticals, Inc., priority 2022, published 2024)
